In PMC12040969, “Design, synthesis, in silico studies, and apoptotic antiproliferative activity of novel thiazole-2-acetamide derivatives as tubulin polymerization inhibitors” (Frontiers in Chemistry, 2025):

Assays:
[1] = Cell viability assay (MTT), normal cells; format: cell-based; conditions: human, MCF-10A normal mammary gland epithelial cells, four-day incubation
Method: The impact of novel compounds 10a-o and 13a-e on cell viability was examined using the MCF-10A (human mammary gland epithelial) normal cell line. The MTT test was employed to assess the cell viability of the novel compounds after a four-day incubation with MCF-10A cells ([El-Sherief et al., 2019]; [Ramadan et al., 2020]).
The effects of compounds 10a-o and 13a-e on cell viability were assessed using the human mammary gland epithelial normal cell line (MCF-10A). The MTT assay assessed the cell viability of compounds 10a-o and 13a-e following a four-day incubation with MCF-10A cells ([El-Sherief et al., 2019]; [Ramadan et al., 2020]). Check Supplementary Appendix A for additional information.
4.2. Biological evaluation
4.2.1 Cell Viability assay (MTT assay)
MTT assay was performed to investigate the effect of the synthesized compounds on mammary epithelial cells (MCF-10A). The cells were propagated in medium consisting of Ham's F-12 medium/ Dulbecco's modified Eagle's medium (DMEM) (1:1) supplemented with 10% foetal calf serum, 2 mM glutamine, insulin (10 μg/mL), hydrocortisone (500 ng/mL) and epidermal growth factor (20 ng/mL). Trypsin ethylenediamine tetra acetic acid (EDTA) was used to passage the cells after every 2-3 days. 96-well flat-bottomed cell culture plates were used to seed the cells at a density of 10^4 cells mL-1. The medium was aspirated from all the wells of culture plates after 24 h followed by the addition of synthesized compounds (in 200 μL medium to yield a final concentration of 0.1% (v/v) dimethyl sulfoxide) into individual wells of the plates.
Four wells were designated to a single compound. The plates were allowed to incubate at 37°C for 96 h. Afterwards, the medium was aspirated and 3-[4,5-dimethylthiazol-2-yl]-2,5-diphenyltetrazolium bromide (MTT) (0.4 mg/mL) in medium was added to each well and subsequently incubated for 3 h. The medium was aspirated and 150 μL dimethyl sulfoxide (DMSO) was added to each well. The plates were vortexed followed by the measurement of absorbance at 540 nm on a microplate reader. The results were presented as inhibition (%) of proliferation in contrast to controls comprising 0.1%

prostatic - PC-3 = assay: Antiproliferative assay (MTT) PC-3; conditions: for IC50: read-out: Antiproliferative activity IC50 ± SEM (µM) PC-3, PC-3, MTT
breast - MCF-7 = assay: Antiproliferative assay (MTT) MCF-7; conditions: for IC50: read-out: Antiproliferative activity IC50 ± SEM (µM) MCF-7, MCF-7, MTT
colon - HCT-116 = assay: Antiproliferative assay (MTT) HCT-116; conditions: for IC50: read-out: Antiproliferative activity IC50 ± SEM (µM) HCT-116, HCT-116, MTT
- MDAMB-231 = assay: Antiproliferative assay (MTT) MDAMB-231
pancreatic - MDAMB-231 = assay: Antiproliferative assay (MTT) MDAMB-231; conditions: read-out: Antiproliferative activity IC50 ± SEM (µM) MDAMB-231; MDAMB-231, MTT
[2] = system: four human cancer cell lines (HCT-116, PC-3, MCF-7, MDAMB-231); assay: Antiproliferative assay, mean of four cell lines (GI50); conditions: for IC50: Homo sapiens, read-out: GI50 (average IC50)
tubulin = assay: Tubulin polymerization inhibition assay (Cytoskeleton kit); conditions: for Tub %inh: 30 min, YB-EGY run; for Tub K.Activity: EC = 120, YB-EGY run;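 for all read-outs here: Cell-free tubulin polymerization read by fluorescent reporter enhancement over a 30 min reaction, with the compound-free kit control taken as 100% activity and inhibition relative to it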

Cc1ccc(/C=C/C(=O)c2sc(SCC(=O)Nc3nc(-c4ccccc4)cs3)nc2C)cc1 [Compound 10d, (E)-2-((4-methyl-5-(3-(p-tolyl)acryloyl)thiazol-2-yl)thio)-N-(4-phenylthiazol-2-yl)acetamide]
viability at 96 h, 50 µM [1]: 90%
Average of Relative viability of cells (%) (prostatic - PC-3; PC-3, 1.56 µM): 100%
Average of Relative viability of cells (%) (prostatic - PC-3; PC-3, 3.125 µM): 86.5%
Average of Relative viability of cells (%) (prostatic - PC-3; PC-3, 6.25 µM): 69.6%
Average of Relative viability of cells (%) (prostatic - PC-3; PC-3, 12.5 µM): 52.3%
Average of Relative viability of cells (%) (prostatic - PC-3; PC-3, 25 µM): 36.4%
Average of Relative viability of cells (%) (prostatic - PC-3; PC-3, 50 µM): 27.9%
Average of Relative viability of cells (%) (prostatic - PC-3; PC-3, 100 µM): 18.7%
IC50 (prostatic - PC-3): 16 ± 1.3 µM
Average of Relative viability of cells (%) (breast - MCF-7; MCF-7, 1.56 µM): 97.5%
Average of Relative viability of cells (%) (breast - MCF-7; MCF-7, 3.125 µM): 84.1%
Average of Relative viability of cells (%) (breast - MCF-7; MCF-7, 6.25 µM): 57.3%
Average of Relative viability of cells (%) (breast - MCF-7; MCF-7, 12.5 µM): 39.2%
Average of Relative viability of cells (%) (breast - MCF-7; MCF-7, 25 µM): 22.6%
Average of Relative viability of cells (%) (breast - MCF-7; MCF-7, 50 µM): 20.4%
Average of Relative viability of cells (%) (breast - MCF-7; MCF-7, 100 µM): 8.1%
IC50 (breast - MCF-7): 10 ± 0.8 µM
Average of Relative viability of cells (%) (colon - HCT-116; HCT-116, 1.56 µM): 100%
Average of Relative viability of cells (%) (colon - HCT-116; HCT-116, 3.125 µM): 91.5%
Average of Relative viability of cells (%) (colon - HCT-116; HCT-116, 6.25 µM): 73.6%
Average of Relative viability of cells (%) (colon - HCT-116; HCT-116, 12.5 µM): 50.2%
Average of Relative viability of cells (%) (colon - HCT-116; HCT-116, 25 µM): 41.9%
Average of Relative viability of cells (%) (colon - HCT-116; HCT-116, 50 µM): 29.7%
Average of Relative viability of cells (%) (colon - HCT-116; HCT-116, 100 µM): 22.4%
IC50 (colon - HCT-116): 19 ± 1.5 µM
Average of Relative viability of cells (%) (- MDAMB-231; MDAMB-231, 1.56 µM): 89.2%
Average of Relative viability of cells (%) (- MDAMB-231; MDAMB-231, 3.125 µM): 69.3%
Average of Relative viability of cells (%) (- MDAMB-231; MDAMB-231, 6.25 µM): 60.4%
Average of Relative viability of cells (%) (- MDAMB-231; MDAMB-231, 12.5 µM): 31.6%
Average of Relative viability of cells (%) (- MDAMB-231; MDAMB-231, 25 µM): 25.8%
Average of Relative viability of cells (%) (- MDAMB-231; MDAMB-231, 50 µM): 16.9%
Average of Relative viability of cells (%) (- MDAMB-231; MDAMB-231, 100 µM): 13.9%
IC50 (pancreatic - MDAMB-231): 8 ± 0.7 µM
Reduced potency compared to doxorubicin (GI50) ([2]; GI50 ratio): at least 2.5 fold
Reduced potency compared to sorafenib (GI50) ([2]; GI50 ratio): ≥ 1.5 fold
IC50 [2]: 13 µM
Tub %inh (tubulin; conc 0.1 (unit not given)): 17.5%
Tub K.Activity (tubulin; conc 0.1 (unit not given)): 98.945
Tub %inh (tubulin; conc 1 (unit not given)): 26.6%
Tub K.Activity (tubulin; conc 1 (unit not given)): 88.129
Tub %inh (tubulin; conc 10 (unit not given)): 45.2%
Tub K.Activity (tubulin; conc 10 (unit not given)): 65.722
Tub %inh (tubulin; conc 50 (unit not given)): 71.7%
Tub K.Activity (tubulin; conc 50 (unit not given)): 33.903
Tub %inh (tubulin; conc 100 (unit not given)): 91.1%
Tub K.Activity (tubulin; conc 100 (unit not given)): 10.641
IC50 (tubulin; read-out: Tubulin inhibition IC50 ± SEM, triplicate for each tested concentration): 5.26 ± 0.16 µM

COc1cccc2c1C(=O)c1c(O)c3c(c(O)c1C2=O)C[C@@](O)(C(=O)CO)C[C@@H]3O[C@H]1C[C@H](N)[C@H](O)[C@H](C)O1 [Doxorubicin, reference compound]
IC50 (prostatic - PC-3): 9 ± 0.6 µM
IC50 (breast - MCF-7): 4 ± 0.2 µM
IC50 (colon - HCT-116): 5 ± 0.3 µM
IC50 (pancreatic - MDAMB-231): 3 ± 0.1 µM
IC50 [2]: 5 µM
